Assay results published in ChEMBL document CHEMBL5244272 (Eur J Med Chem, 2021).
pIC50: −log10 of the molar value. Converted amounts (≈) assume the structure as drawn.

Key:
[1] = test system: Plasmodium yoelii; assay: Antimalarial activity against multidrug resistant Plasmodium yoelii infected in swiss mouse assessed as reduction in parasitaemia at 96 mg/kg, po; format: functional; parameters: scale not given: the % may be the effect or the level left
[2] = test system: Plasmodium yoelii; assay: Antimalarial activity against multidrug resistant Plasmodium yoelii infected in swiss mouse assessed as reduction in parasitaemia at 48 mg/kg, po measured on day 4; format: functional; parameters: scale not given: the % may be the effect or the level left; conditions: time 4 day
[3] = test system: Plasmodium yoelii; assay: Antimalarial activity against multidrug resistant Plasmodium yoelii infected in swiss mouse assessed as increase in survival at 48 mg/kg, po after 28 days; format: functional; conditions: time 28 day
[4] = test system: Plasmodium berghei; assay: Antimalarial activity against Plasmodium berghei ANKA infected in po dosed mouse; format: functional; conditions: Plasmodium berghei, ANKA
[5] = test system: Plasmodium berghei; assay: Antimalarial activity against Plasmodium berghei ANKA infected in mouse at 30 mg/kg, po; format: functional
[6] = test system: Plasmodium berghei; assay: Antimalarial activity against Plasmodium berghei infected in mouse at less than 10 mg/kg, po; format: functional
[7] = test system: Plasmodium falciparum; assay: Antimalarial activity against Plasmodium falciparum W2; format: functional, organism-based
[8] = test system: Plasmodium falciparum; assay: Antimalarial activity against Plasmodium falciparum NF54; format: functional, organism-based
[9] = test system: Plasmodium falciparum; assay: Antimalarial activity against late stage Plasmodium falciparum gametocytes; format: functional, organism-based
[10] = test system: Plasmodium falciparum; assay: Antimalarial activity against Plasmodium falciparum K1; format: functional, organism-based
[11] = test system: Plasmodium berghei; assay: Antimalarial activity against Plasmodium berghei infected in mouse; format: functional; conditions: Plasmodium berghei
[12] = test system: Plasmodium berghei; assay: Potency index, ratio of artesunic acid ED50 to test compound ED50 for Plasmodium berghei; format: functional
[13] = test system: Plasmodium berghei; assay: Antimalarial activity against Plasmodium berghei K173 infected in mouse; format: functional; conditions: Plasmodium berghei, K173
[14] = test system: Plasmodium yoelii; assay: Antimalarial activity against Plasmodium yoelii BY265 infected in mouse assessed reduction in parasitemia at 4.4 to […], iv administered for 4 consecutive days; format: functional; parameters: scale not given: the % may be the effect or the level left
[15] = test system: Plasmodium yoelii; assay: Potency index, ratio of artesunate ED90 to test compound ED90 for Plasmodium yoelii; format: functional
[16] = test system: Plasmodium yoelii; assay: Antimalarial activity against Plasmodium yoelii infected in sc dosed mouse; format: functional
[17] = test system: Plasmodium falciparum; assay: Antimalarial activity against Plasmodium falciparum D6; format: functional, organism-based
[18] = test system: Plasmodium berghei; assay: Antimalarial activity against Plasmodium berghei infected in sc dosed mouse; format: functional; conditions: Plasmodium berghei
[19] = test system: Plasmodium berghei; assay: Potency index, ratio of artesunate ED90 to test compound ED90 for Plasmodium berghei; format: functional
[20] = test system: Plasmodium falciparum; assay: Antimalarial activity against Plasmodium falciparum IPC4912; format: functional, organism-based
[21] = test system: Plasmodium falciparum; assay: Antimalarial activity against ART-resistant Plasmodium falciparum Dd2 harboring R539T mutant; format: functional, organism-based
[22] = test system: Plasmodium falciparum; assay: Antimalarial activity against ART-resistant Plasmodium falciparum NF54 harboring […] mutant; format: functional, organism-based
[23] = test system: Plasmodium falciparum; assay: Antimalarial activity against Plasmodium falciparum SGE2; format: functional, organism-based
[24] = test system: Plasmodium falciparum; assay: Antimalarial activity against Plasmodium falciparum IV-V gametocytes; format: functional, organism-based
[25] = test system: Plasmodium falciparum; assay: Antimalarial activity against Plasmodium falciparum 3D7; format: functional, organism-based
[26] = test system: Plasmodium falciparum; assay: Antimalarial activity against ART-sensitive Plasmodium falciparum NF54; format: functional, organism-based
[27] = test system: Plasmodium falciparum; assay: Antimalarial activity against ART-sensitive Plasmodium falciparum W2; format: functional, organism-based
[28] = test system: Plasmodium falciparum; assay: Antimalarial activity against Plasmodium falciparum Dd2; format: functional, organism-based
[29] = test system: Plasmodium falciparum; assay: Antimalarial activity against Plasmodium falciparum IPC5202; format: functional, organism-based
[30] = test system: Plasmodium falciparum; assay: Antimalarial activity against Plasmodium falciparum HB3; format: functional, organism-based
[31] = test system: Plasmodium falciparum; assay: Antimalarial activity against Plasmodium falciparum; format: functional, organism-based
[32] = test system: Plasmodium falciparum; assay: Potency index, ratio of artesunate IC50 to test compound IC50 for chloroquine resistant Plasmodium falciparum; format: functional
[33] = Cytotoxicity against HEK293 cells; format: toxicity, cell-based; conditions: human
[34] = test system: Plasmodium falciparum; assay: Potency index, ratio of chloroquine IC50 to test compound IC50 for Plasmodium falciparum INDO; format: functional
[35] = test system: Plasmodium falciparum; assay: Antimalarial activity against Plasmodium falciparum INDO; format: functional, organism-based
[36] = Selectivity index, ratio of IC50 for HEK293 cells to IC50 for Plasmodium falciparum INDO; format: toxicity; conditions: human, read-out: Ratio IC50
[37] = test system: Plasmodium falciparum; assay: Antimalarial activity against Plasmodium falciparum RKL2; format: functional, organism-based
[38] = test system: Plasmodium berghei; assay: Antimalarial activity against Plasmodium berghei infected in Swiss mouse at 2 mg/kg/day, po; format: functional

## C=C(c1ccc(-c2ccccc2)cc1)C1COC2(CCC(Nc3ccccc3)CC2)OO1 (stereo unspecified)
[1]
  Activity: 100%
[2]
  Activity: 100%
[3]
  Activity: 60%

## O=C(CC1CCC2(CC1)OOC1(OO2)C2CC3CC(C2)CC1C3)N1CCOCC1 (stereo unspecified)
[4]
  ED90: 3.88 mg/kg
[5]
  Activity: 100%

## C[C@@H]1CC[C@H]2C(CN3CCN(CCO)CC3)=C(C(F)(F)F)O[C@@H]3O[C@]4(C)CC[C@@H]1[C@]32OO4
[6]
  Activity: 100%

## C[C@@H]1CC[C@H]2[C@@H](C)C(=O)N(S(=O)(=O)c3cccs3)[C@@H]3O[C@]4(C)CC[C@@H]1[C@@]23OO4
[7]
  pIC50: 8.37
[8]
  pIC50: 8.25
[9]
  pIC50: 8.07
[10]
  pIC50: 8.20

## CC(O[C@H]1O[C@@H]2O[C@@]3(C)CC[C@H]4[C@H](C)CC[C@@H]([C@H]1C)[C@@]24OO3)c1ccc(CN2CCOCC2)c(O)c1 (stereo partly specified)
[11]
  ED50: 0.64 mg/kg/day
[12]
  Ratio ED50: 10
[13]
  ED50: 0.64 mg/kg/day

## CCCCCCCCCCCCCC[N+](C)(C)CCOC(=O)c1ccc(COC2O[C@@H]3O[C@]4(C)CC[C@H]5[C@H](C)CC[C@@H]([C@H]2C)[C@@]35OO4)cc1.[Br-] (stereo partly specified)
[14]
  Activity: >50%

## C[C@H]1[C@H](Nc2ccc(F)cc2)O[C@@H]2O[C@]3(C)CC[C@H]4[C@H](C)CC[C@@H]1[C@@]24OO3
[7]
  IC50: 0.64 ng/mL
[15]
  Ratio: 13
[16]
  ED90: 0.6 mg/kg
[17]
  IC50: 0.64 ng/mL (≈ 1.7 nM)
[18]
  ED90: 0.35 mg/kg
[19]
  Ratio: 13

## C[C@H]1[C@@H](O)O[C@@H]2O[C@@]3(C)CC[C@H]4[C@H](C)CC[C@@H]1[C@@]24OO3 [ARTENIMOL]
[20]
  pIC50: 8.43
[21]
  pIC50: 8.85
[22]
  pIC50: 8.96
[23]
  pIC50: 8.05
[24]
  pIC50: 6.36
[11]
  ED50: 1.15 mg/kg
[25]
  pIC50: 8.33
[26]
  pIC50: 8.82
[27]
  pIC50: 9.00
[28]
  pIC50: 8.38
[29]
  pIC50: 8.21
[30]
  pIC50: 8.30

## C[C@H]1[C@H](CCCO)O[C@@H]2O[C@]3(C)CC[C@H]4[C@H](C)CC[C@@H]1[C@@]24OO3
[31]
  IC50: 0.23 ng/mL (≈ 0.705 nM)
[32]
  Ratio IC50: 5

## C=C(c1ccc2c(c1)CCCC2)C1COC2(CCCCC2)OO1 (stereo unspecified)
[33]
  CC50: 30100 nM
[34]
  Ratio IC50: 11
[35]
  pIC50: 7.29
[36]
  selectivity ratio: 589

## CC1(C)OOC(c2ccccc2)(c2ccccc2)OO1
[37]
  IC50: 3910 ng/mL (≈ 14300 nM)

## CC(C)(N)CNC(=O)O[C@@H]1CCC[C@]2(C1)OOC1(O2)C2CC3CC(C2)CC1C3 (stereo partly specified)
[7]
  pIC50: 8.74
[38]
  Activity: 100%
